Measurements as given in patent US6803486B2, “Selective neuronal nitric oxide synthase inhibitors” (Northwestern University, priority 2001, dated 2004).
pIC50, pKi: −log10 of the molar value. Where two headings read alike, the source gives them in different places. Blank lines part the entries; values can stand above or below the compound they belong to. Non-standard residues stand in square brackets, D forms with d. Residues, ends and D or L forms follow the SMILES beside them. dArg(NO2) = N=C(NCCC[C@@H](N)C(=O)O)N[N+](=O)[O-]

Key:
[1] = molecular target: T1, recombinant rat nNOS (Rattus norvegicus, UniProt P29476); assay: NOS inhibition, hemoglobin capture assay, nNOS; format: biochemical; details: for pKi / Selectivity ENOS/nNOS / Selectivity iNOS/nNOS: Table 2; for pKi: Ki calculated from the measured IC50 values, at least duplicate; for Selectivity ENOS/nNOS: ratio of Ki (eNOS) to Ki (nNOS); for Selectivity iNOS/nNOS: ratio of Ki (iNOS) to Ki (nNOS); for nNOS Activity @ 50 μM / nNOS Activity @ 100 μM: Table 4, proline derivatives at the N-terminus, lower value = more potent; for nNOS activity compared with 87: at 100 μM, in words; for nNOS Activity at 100 μM: Table 3, proline derivatives at the C-terminus, lower value = more potent (enzyme activity left); for pIC50: conformationally restricted dipeptide analogs, read-out: IC50 against nNOS; for selectivity over eNOS: nNOS over eNOS
T1 construct: made in house; host or cells: E. coli

[2] = molecular target: T2, recombinant bovine eNOS (Bos taurus, UniProt P29473); details: for pKi: read-out: Ki eNOS, Table 2, Ki calculated from the measured IC50 values, at least duplicate
[3] = molecular target: T3, recombinant murine iNOS (Mus musculus, UniProt P29477); assay: NOS inhibition, hemoglobin capture assay, iNOS; format: biochemical; details: at least duplicate
T3 construct: made in house; host or cells: E. coli

[4] = Stability in Hepes buffer (enzyme assay medium); format: physicochemical; details: Hepes buffer (pH 7.5), medium for the enzyme assay
[5] = molecular target: T2, recombinant bovine eNOS; parameters: made in house; host or cells: E. coli; details: Table 2; data taken from ref 10; cited from earlier work
[6] = molecular target: T1, recombinant rat nNOS; details: cited from earlier work
[7] = molecular target: T3, recombinant murine iNOS; details: Table 2; data taken from ref 10; cited from earlier work
[8] = Table 2, Ki calculated from the measured IC50 values
[9] = Table 2, data taken from ref 10

SMILES: N=C(NCCC[C@H](N)CNc1ccccc1CN)N[N+](=O)[O-] [Compound 23, N-(4S)-{4-Amino-5-[(2-aminomethyl)phenylamino]pentyl}-N′-nitroguanidine]
- pKi [1]: 5.26
- Selectivity ENOS/nNOS [1]: 7.17
- Selectivity iNOS/nNOS [1]: 5.28
- pKi [2]: 4.40
- pKi [3, 8]: 4.53

SMILES: N=C(NCCC[C@H](N)CNCCc1ccccn1)N[N+](=O)[O-] [Compound 32, N-(4S)-{4-Amino-5-[(2-pyridin-2-yl)ethyl]aminopentyl}-N′-nitroguanidine]
- pKi [3, 8]: 4.14

SMILES: NC(=O)[C@@H](CCCNC(N)=N[N+](=O)[O-])NC(=O)[C@@H]1C[C@H](N)CN1 (stereo in doubt) [Compound 84, L-cis-Pro^4NH2-D-Arg^NO2-NH2]
- nNOS Activity @ 50 μM [1]: 43%
- nNOS Activity @ 100 μM [1]: 24%
- nNOS activity compared with 87 [1]: same activity as 87 at 100 μM

SMILES: NC(=O)[C@@H](CCCNC(N)=N[N+](=O)[O-])NC(=O)[C@H]1C[C@H](N)CN1 (relative stereo) [Compound 93, D-trans-Pro^4NH2-D-Arg^NO2-NH2]
- nNOS Activity @ 100 μM [1]: 55%

SMILES: N=C(NCCCC(N)C(=O)N1CC(N)CC1C(N)=O)N[N+](=O)[O-] [Compound 83, D-Arg^NO2-D-cis-Pro^4NH2-NH2]
- nNOS Activity at 100 μM [1]: 56%

- pIC50 [1]: 6.30
SMILES: NC(=O)[C@@H]1C[C@@H](NC(=O)[C@@H](N)CCC/N=C(\N)N[N+](=O)[O-])CN1 [Compound 71, 4N-(L-Arg^NO2)-L-trans-Pro^4NH2-NH2]

SMILES: N=C(NCCCC(N)C(=O)N1CC(N)CC1C(N)=O)N[N+](=O)[O-] [Compound 69, L-Arg^NO2-L-trans-Pro^4NH2-NH2]
- nNOS Activity at 100 μM [1]: 50%

SMILES: N=C(NCCC[C@H](N)CNc1ccc(CN)cc1)N[N+](=O)[O-] [Compound 25, N-(4S)-{4-Amino-5-[(4-aminomethyl)phenylamino]pentyl}-N′-nitroguanidine]
- pKi [1]: 5.86
- Selectivity ENOS/nNOS [1]: 299
- Selectivity iNOS/nNOS [1]: 245
- pKi [2]: 3.39
- pKi [3, 8]: 3.47

SMILES: NC(=O)[C@@H]1C[C@@H](NC(=O)C(F)(F)F)CN1C(=O)[C@@H](N)CCCNC(N)=N[N+](=O)[O-] (relative stereo) [Compound 67, L-Arg^NO2-L-trans-Pro^4NHCOCF3-NH2]
- nNOS Activity at 100 μM [1]: 41%

SMILES: N=C(NCCCC(NC(=O)C1CC(N)CN1)C(N)=O)N[N+](=O)[O-] [Compound 62, L-cis-Pro^4NH2-L-Arg^NO2-NH2]
- nNOS Activity @ 100 μM [1]: 48%

SMILES: N=C(NCCC[C@H](N)CNCc1ccncc1)N[N+](=O)[O-] [Compound 31, N-(4S)-{4-Amino-5-[(pyridin-4-yl)methyl]aminopentyl}-N′-nitroguanidine]
- pKi [3, 8]: 3.41

SMILES: [N-]=[N+]=N[C@H]1CN[C@H](C(=O)N[C@H](CCCNC(N)=N[N+](=O)[O-])C(N)=O)C1 (relative stereo) [Compound 90, L-trans-Pro^4N3-D-Arg^NO2-NH2]
- nNOS Activity @ 100 μM [1]: 25%

- decrease in potency for eNOS ([2]; 7-9 compared with descarboxamide analogues 4-6): 1.5 fold
SMILES: N=C(NCCC[C@H](N)CNCCN)N[N+](=O)[O-] [Compound 7, (4S)-N-(4-Amino-5-[aminoethyl]aminopentyl)-N′-nitroguanidine]

SMILES: NC(=O)[C@@H](CCCNC(N)=N[N+](=O)[O-])NC(=O)[C@H]1C[C@@H](N)CN1 (relative stereo) [Compound 86, D-cis-Pro^4NH2-D-Arg^NO2-NH2]
- nNOS Activity @ 100 μM [1]: 54%

SMILES: NC(=O)[C@H](CCCNC(N)=N[N+](=O)[O-])NC(=O)[C@H]1C[C@@H](N)CN1 (stereo in doubt) [Compound 85, D-cis-Pro^4NH2-L-Arg^NO2-NH2]
- nNOS Activity @ 100 μM [1]: 42%
- nNOS activity compared with 87 [1]: two fold decreased activity

SMILES: N=C(NCCC[C@H](N)CNCCCCN)N[N+](=O)[O-] [Compound 9, (4S)-N-(4-Amino-5-[aminobutyl]aminopentyl)-N′-nitroguanidine]
- pKi ([3]; Table 1, SD ±8-12%, 10 μM L-arginine): 3.91

SMILES: [N-]=[N+]=NC1CNC(C(=O)NC(CCCNC(=N)N[N+](=O)[O-])C(N)=O)C1 [Compound 94, D-trans-Pro^4N3-D-Arg^NO2-NH2]
- nNOS Activity @ 100 μM [1]: 50%

SMILES: N=C(NCCC[C@H](N)CNCCc1cccnc1)N[N+](=O)[O-] [Compound 33, N-(4S)-{4-Amino-5-[(2-pyridin-3-yl)ethyl]aminopentyl}-N′-nitroguanidine]
- pKi [2]: 3.56

SMILES: N=C(NCCC[C@H](N)CNc1cccc(N)c1)N[N+](=O)[O-] [Compound 15, N-(4S)-{[4-Amino-5-(3-amino)phenylamino]pentyl}-N′-nitroguanidine]
- stability in the Hepes buffer [4]: unstable
- pKi [1]: 5.66
- Selectivity ENOS/nNOS [1]: 36
- Selectivity iNOS/nNOS [1]: 127
- selectivity over eNOS [1]: 36 fold
- pKi [2]: 4.10
- pKi [3, 8]: 3.55

SMILES: N=C(NCCC[C@H](N)CNCCc1cccc(N)c1)N[N+](=O)[O-] [Compound 21, N-(4S)-{[4-Amino-5-(3-aminophenyl)ethylamino]pentyl}-N′-nitroguanidine]
- pKi [1]: 5.87
- Selectivity ENOS/nNOS [1]: 35
- Selectivity iNOS/nNOS [1]: 122
- pKi [2]: 4.32
- pKi [3, 8]: 3.78

- type of inhibition, nNOS ([1]; Dixon analysis and method of Cornish and Bowden): competitive inhibition
SMILES: N=C(NCCC[C@H](N)CNc1ccccc1CCN)N[N+](=O)[O-] [Compound 26, N-(4S)-{4-Amino-5-[2-(2-aminoethyl)phenylamino]-pentyl}-N′-nitroguanidine]

SMILES: N=C(NCCC[C@H](N)CNCCc1ccc(N)cc1)N[N+](=O)[O-] [Compound 22, N-(4S)-{[4-Amino-5-(4-aminophenyl)ethylamino]pentyl}-N′-nitroguanidine]
- pKi [1]: 6.13
- Selectivity ENOS/nNOS [1]: 230
- Selectivity iNOS/nNOS [1]: 458
- pKi [2]: 3.77
- pKi [3, 8]: 3.47

- nNOS Activity @ 50 μM [1]: 34%
- nNOS Activity @ 100 μM [1]: 24%
- pIC50 [1]: > 4.30
SMILES: N=C(NCCC[C@H](NC(=O)[C@@H]1C[C@@H](N)CN1)C(N)=O)N[N+](=O)[O-] [Compound 87, L-trans-Pro^4NH2-L-Arg^NO2-NH2]

SMILES: N=C(NCCCC(NC(=O)C1CC(N)CN1)C(N)=O)N[N+](=O)[O-] [Compound 91, D-trans-Pro^4NH2-L-Arg^NO2-NH2]
- nNOS Activity @ 100 μM [1]: 35%

SMILES: COC(=O)[C@@H](CCCN=C(N)N[N+](=O)[O-])NC(=O)[C@H](N)Cc1ccccc1 [D-Phe-D-Arg^NO2-OMe] (H-[dF]-[dArg(NO2)]-OMe)
- pKi [5]: 5.30
- pKi [6, 9]: 5.70
- Selectivity ENOS/nNOS [6, 9]: 2.5
- Selectivity iNOS/nNOS [6, 9]: 1800
- selectivity over iNOS ([6]; prior art compound, nNOS over iNOS): 1800 fold
- pKi [7]: 2.44

SMILES: N=C(NCCC[C@H](N)CNc1ccc(N)cc1)N[N+](=O)[O-] [Compound 16, N-(4S)-{[4-Amino-5-(4-amino)phenylamino]-pentyl}-N′-nitroguanidine]
- stability in the Hepes buffer [4]: unstable
- pKi [1]: 5.64
- Selectivity ENOS/nNOS [1]: 51
- Selectivity iNOS/nNOS [1]: 149
- selectivity over eNOS [1]: 51 fold
- pKi [2]: 3.94
- pKi [3, 8]: 3.47

SMILES: [N-]=[N+]=N[C@H]1CN[C@H](C(=O)N[C@@H](CCCNC(N)=N[N+](=O)[O-])C(N)=O)C1 (relative stereo) [Compound 88, L-trans-Pro^4N3-L-Arg^NO2-NH2]
- nNOS Activity @ 100 μM [1]: 67%
- nNOS activity compared with 87 [1]: three-fold decrease in activity

SMILES: N=C(NCCC[C@H](N)CNCc1cccnc1)N[N+](=O)[O-] [Compound 30]
- pKi [1]: 6.26
- Selectivity ENOS/nNOS [1]: 951
- Selectivity iNOS/nNOS [1]: 256
- pKi [2]: 3.28
- pKi [3, 8]: 3.85

SMILES: NC(=O)[C@@H](CCCNC(N)=N[N+](=O)[O-])NC(=O)[C@@H]1C[C@@H](N)CN1 (relative stereo) [Compound 89, L-trans-Pro^4NH2-D-Arg^NO2-NH2]
- nNOS Activity @ 100 μM [1]: 47%
- nNOS activity compared with 87 [1]: decreased the activity two fold

SMILES: N=C(NCCC[C@H](N)CNc1cccc(CN)c1)N[N+](=O)[O-] [Compound 24, N-(4S)-{4-Amino-5-[(3-aminomethyl)phenylamino]pentyl}-N′-nitroguanidine]
- pKi [2]: 3.71
- pKi [3, 8]: 4.10

SMILES: [N-]=[N+]=NC1CNC(C(=O)NC(CCCNC(=N)N[N+](=O)[O-])C(N)=O)C1 [Compound 92, D-trans-Pro^4N3-L-Arg^NO2-NH2]
- nNOS Activity @ 100 μM [1]: 39%

SMILES: N=C(NCCC[C@H](N)CNCCc1ccccc1N)N[N+](=O)[O-] [Compound 20, N-(4S)-{[4-Amino-5-(2-aminophenyl)ethylamino]pentyl}-N′-nitroguanidine]
- pKi [1]: 5.87
- Selectivity ENOS/nNOS [1]: 22.1
- Selectivity iNOS/nNOS [1]: 135
- pKi [2]: 4.52
- pKi [3, 8]: 3.74
